System: 3T3-L1 cells
Test: Adipogenesis assay
Type: cell-based, mouse
Details: for Adipogenesis inhibition, result in words: concentration tested
Description: 3T3-L1 cells (mouse embryonic fibroblast-like adipocyte cell line) are seeded in a 48-well plate with collagen I coating at a concentration of 3×10^4 cells/well. After culture for 72 h at 37° C. and 5% CO2 in DMEM (Dulbecco's Modified Eagle's Medium), enriched with 10% calf serum, various concentrations of the test samples are added to DMEM, enriched with 10% fetal calf serum supplemented with 1 μg/ml insulin, 0.25 μM dexamethasone and 0.5 mM IBMX (3-isobutyl-1-methylxanthine), and incubated for a further 48 h. The medium is changed, applying DMEM, enriched with 10% fetal calf serum supplemented with 1 μg/ml insulin. After further cultivation for 48 h, the medium is changed again, applying DMEM enriched with 10% fetal calf serum.
After incubation for a further 72 h, the intracellularly stored lipids are quantified as a measure for the differentiation of the cells, by measuring the fluorescence after staining the lipids with the fluorescent dye Nile Red.
The inhibition of adipogenesis in the presence of the test samples is calculated from the following equation:
[formula] with RFU test substance=relative fluorescence units of the wells with test substance and with cells RFU control=relative fluorescence units of the wells without test substance, but with cells RFU control without cells=relative fluorescence units of the wells without test substance and without cells.
IC50 is calculated from the adipogenesis inhibition [%] in a series of dilutions of samples tested. This is the concentration at which adipogenesis is inhibited 50%.

| Compound | Adipogenesis inhibition, result in words | Adipogenesis inhibition (test concentration 0.0003 % (corresponds to content 1.0 wt. % in BIO781/2)) | Adipogenesis inhibition (test concentration 0.0005 % (corresponds to content 1.5 wt. % in BIO781/2)) |
| --- | --- | --- | --- |
| O=c1c(O)c(-c2ccc(O)c(O)c2)oc2cc(O)ccc12 [Fisetin, 3,3′,4′,7-tetrahydroxyflavone] | do not show any activity | No inhibition | – |
| O=C1c2ccc(O)cc2OC(c2ccc(O)c(O)c2)C1O (stereo not shown) [Fustin, 3,3′,4′,7-tetrahydroxyflavanone] | do not show any activity | – | No inhibition |
